The values below come from US10526309B2, “Pan-TAM inhibitors and Mer/Axl dual inhibitors” (The University of North Carolina at Chapel Hill, priority 2015, dated 2020).

The first test concerns the target T1, Mer (Homo sapiens, UniProt Q12866).
T1 sequence (Q12866 21-999): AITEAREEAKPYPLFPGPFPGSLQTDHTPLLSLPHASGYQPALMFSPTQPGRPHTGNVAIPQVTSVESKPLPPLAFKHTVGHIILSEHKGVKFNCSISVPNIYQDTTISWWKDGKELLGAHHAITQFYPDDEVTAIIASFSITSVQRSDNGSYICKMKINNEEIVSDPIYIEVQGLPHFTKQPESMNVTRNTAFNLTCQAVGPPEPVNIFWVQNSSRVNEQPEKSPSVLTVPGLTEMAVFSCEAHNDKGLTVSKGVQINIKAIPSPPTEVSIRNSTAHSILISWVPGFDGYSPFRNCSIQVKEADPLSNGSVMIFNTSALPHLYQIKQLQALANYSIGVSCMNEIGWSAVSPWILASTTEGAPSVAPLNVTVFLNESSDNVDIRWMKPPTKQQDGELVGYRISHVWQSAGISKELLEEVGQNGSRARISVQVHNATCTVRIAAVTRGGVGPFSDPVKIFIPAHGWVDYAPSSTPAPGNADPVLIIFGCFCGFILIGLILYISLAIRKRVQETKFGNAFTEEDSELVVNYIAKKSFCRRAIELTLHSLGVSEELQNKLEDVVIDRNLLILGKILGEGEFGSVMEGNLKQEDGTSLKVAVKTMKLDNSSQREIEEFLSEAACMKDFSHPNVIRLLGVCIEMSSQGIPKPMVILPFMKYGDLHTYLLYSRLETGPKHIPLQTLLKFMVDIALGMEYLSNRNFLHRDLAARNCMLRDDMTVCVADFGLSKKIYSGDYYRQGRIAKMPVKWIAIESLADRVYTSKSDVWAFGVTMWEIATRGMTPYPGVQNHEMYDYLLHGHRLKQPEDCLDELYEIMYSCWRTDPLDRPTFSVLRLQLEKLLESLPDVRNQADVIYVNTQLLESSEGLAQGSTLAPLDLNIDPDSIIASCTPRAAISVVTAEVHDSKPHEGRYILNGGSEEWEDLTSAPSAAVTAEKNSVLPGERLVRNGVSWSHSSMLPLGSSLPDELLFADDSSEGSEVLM
As to the kind of experiment: Mer kinase inhibition IC50. The format is biochemical. The following applies: Table 1; read-out: Mer IC50.
As a reminder, the IC50 is the midpoint of a concentration-inhibition curve. Take `CC(C)N1CCC(=Cc2ccc(-c3cnc(Nc4ccc(F)cc4)nc3N[C@H]3CC[C@H](O)CC3)nc2)CC1` [UNC4397A]: the IC50 is less than 0.01 µM.

Staying with this test, now noted: Table 2; read-out: Mer IC50.
As to `O[C@H]1CC[C@H](Nc2nc(Nc3ccc(C4=CCNCC4)cc3)ncc2-c2ccccn2)CC1` [UNC4402A], the IC50 was in the range of 0.1 to 1 µM.
The same measure, in the same setting: the figure for `CC[C@H](N)C(=O)N1CC=C(c2ccc(Nc3ncc(-c4ccccn4)c(N[C@H]4CC[C@H](O)CC4)n3)cc2)CC1` [UNC4403A] is 0.1 to 1 µM; for `CN1CC=C(c2ccc(Nc3ncc(-c4ccccn4)c(N[C@H]4CC[C@H](O)CC4)n3)cc2)CC1` [UNC4431A] it is 0.1 to 1 µM.
Same read-out and setting: the figure for `O[C@H]1CC[C@H](Nc2nc(Nc3ccc(C4=CCOCC4)cc3)ncc2-c2ccccn2)CC1` [UNC4434A] is 0.01 to 0.1 µM; for `O[C@H]1CC[C@H](Nc2nc(Nc3ccc(-c4cccnc4)cc3)ncc2-c2ccccn2)CC1` [UNC4435A] it is 0.1 to 1 µM.
Consider `CN1CCC(N2CC=C(c3ccc(Nc4ncc(-c5ccccn5)c(N[C@H]5CC[C@H](O)CC5)n4)cc3)CC2)CC1` [UNC5052A], for which the IC50 was 0.01 to 0.1 µM.
Regarding `O[C@H]1CC[C@H](Nc2nc(Nc3ccc(C4=CCCN(C5CCC5)C4)cc3)ncc2-c2ccccn2)CC1` [UNC5070A], the concentration for half-maximal inhibition (IC50) was 0.1 to 1 µM.
Regarding `CN1CCC(N2CCC(c3ccc(Nc4ncc(-c5ccccn5)c(N[C@H]5CC[C@H](O)CC5)n4)cc3)CC2)CC1` [UNC5072A], the IC50 was in the range of 0.01 to 0.1 µM.
With `O[C@H]1CC[C@H](Nc2nc(Nc3ccc(C4=CCCNC4)cc3)ncc2-c2ccccn2)CC1` [UNC5113A], the IC50 fell in the range of 0.01 to 0.1 µM.
With `O[C@H]1CC[C@H](Nc2nc(Nc3ccc(C4CCNCC4)cc3)ncc2-c2ccccn2)CC1` [UNC5128A], the 50% inhibitory concentration (IC50) is 0.1 to 1 µM.
On to `O[C@H]1CC[C@H](Nc2nc(Nc3ccc(C4CCCNC4)cc3)ncc2-c2ccccn2)CC1` (stereo partly drawn) [UNC5129A], for which the IC50 lay within 0.1 to 1 µM.

Another test addresses T2, Axl (Homo sapiens, UniProt P30530).
T2 sequence (P30530 26-894): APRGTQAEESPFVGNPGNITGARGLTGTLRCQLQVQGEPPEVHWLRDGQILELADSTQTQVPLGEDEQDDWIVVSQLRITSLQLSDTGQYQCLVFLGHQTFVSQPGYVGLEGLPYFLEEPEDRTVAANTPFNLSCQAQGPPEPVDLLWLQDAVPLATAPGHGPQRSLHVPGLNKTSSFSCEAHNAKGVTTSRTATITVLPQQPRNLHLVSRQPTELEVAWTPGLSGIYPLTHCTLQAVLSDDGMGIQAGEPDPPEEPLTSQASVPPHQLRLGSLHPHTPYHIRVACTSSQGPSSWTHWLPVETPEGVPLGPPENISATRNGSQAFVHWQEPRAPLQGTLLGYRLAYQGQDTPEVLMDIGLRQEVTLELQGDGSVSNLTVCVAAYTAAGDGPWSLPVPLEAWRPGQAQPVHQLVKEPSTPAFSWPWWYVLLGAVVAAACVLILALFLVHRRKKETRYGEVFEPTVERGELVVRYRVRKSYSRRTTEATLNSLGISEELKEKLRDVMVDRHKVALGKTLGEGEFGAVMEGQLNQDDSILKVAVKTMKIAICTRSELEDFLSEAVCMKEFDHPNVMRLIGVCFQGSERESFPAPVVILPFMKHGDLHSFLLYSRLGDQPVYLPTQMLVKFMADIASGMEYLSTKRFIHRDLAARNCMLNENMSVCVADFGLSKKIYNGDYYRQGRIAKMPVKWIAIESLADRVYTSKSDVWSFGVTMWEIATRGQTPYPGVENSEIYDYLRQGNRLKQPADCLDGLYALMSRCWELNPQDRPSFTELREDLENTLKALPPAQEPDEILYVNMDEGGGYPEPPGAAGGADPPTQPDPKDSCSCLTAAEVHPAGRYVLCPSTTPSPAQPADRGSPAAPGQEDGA
Nature of the test: Axl kinase inhibition IC50. Type of test: biochemical. The following applies: Table 1.
The molecule `CC(C)N1CCC(=Cc2ccc(-c3cnc(Nc4ccc(F)cc4)nc3N[C@H]3CC[C@H](O)CC3)nc2)CC1` [UNC4397A] came in with an IC50 of less than 0.01 µM.

The same test, now with this note: Table 2.
Molecule `O[C@H]1CC[C@H](Nc2nc(Nc3ccc(C4=CCNCC4)cc3)ncc2-c2ccccn2)CC1` [UNC4402A] yielded an IC50 of 1 to 30 µM.
With `CC[C@H](N)C(=O)N1CC=C(c2ccc(Nc3ncc(-c4ccccn4)c(N[C@H]4CC[C@H](O)CC4)n3)cc2)CC1` [UNC4403A], the IC50 lay in the range of 1 to 30 µM.
The same measure, in the same setting: under `CN1CC=C(c2ccc(Nc3ncc(-c4ccccn4)c(N[C@H]4CC[C@H](O)CC4)n3)cc2)CC1` [UNC4431A] stands 1 to 30 µM.
Same read-out and setting: the figure for `O[C@H]1CC[C@H](Nc2nc(Nc3ccc(C4=CCOCC4)cc3)ncc2-c2ccccn2)CC1` [UNC4434A] is 0.1 to 1 µM; for `O[C@H]1CC[C@H](Nc2nc(Nc3ccc(-c4cccnc4)cc3)ncc2-c2ccccn2)CC1` [UNC4435A] it is 1 to 30 µM; for `CN1CCC(N2CC=C(c3ccc(Nc4ncc(-c5ccccn5)c(N[C@H]5CC[C@H](O)CC5)n4)cc3)CC2)CC1` [UNC5052A] it is 0.1 to 1 µM.
Same read-out and setting: under `O[C@H]1CC[C@H](Nc2nc(Nc3ccc(C4=CCCN(C5CCC5)C4)cc3)ncc2-c2ccccn2)CC1` [UNC5070A] stands 1 to 30 µM; under `CN1CCC(N2CCC(c3ccc(Nc4ncc(-c5ccccn5)c(N[C@H]5CC[C@H](O)CC5)n4)cc3)CC2)CC1` [UNC5072A], 0.1 to 1 µM; under `O[C@H]1CC[C@H](Nc2nc(Nc3ccc(C4=CCCNC4)cc3)ncc2-c2ccccn2)CC1` [UNC5113A], 0.1 to 1 µM.
Molecule `O[C@H]1CC[C@H](Nc2nc(Nc3ccc(C4CCNCC4)cc3)ncc2-c2ccccn2)CC1` [UNC5128A] showed an IC50 of 1 to 30 µM.
On the same count and under the same terms, under `O[C@H]1CC[C@H](Nc2nc(Nc3ccc(C4CCCNC4)cc3)ncc2-c2ccccn2)CC1` (stereo partly drawn) [UNC5129A] stands 0.1 to 1 µM.

The target in another test is T3, Tyro3 (Homo sapiens, UniProt Q06418).
T3 sequence (Q06418 41-890): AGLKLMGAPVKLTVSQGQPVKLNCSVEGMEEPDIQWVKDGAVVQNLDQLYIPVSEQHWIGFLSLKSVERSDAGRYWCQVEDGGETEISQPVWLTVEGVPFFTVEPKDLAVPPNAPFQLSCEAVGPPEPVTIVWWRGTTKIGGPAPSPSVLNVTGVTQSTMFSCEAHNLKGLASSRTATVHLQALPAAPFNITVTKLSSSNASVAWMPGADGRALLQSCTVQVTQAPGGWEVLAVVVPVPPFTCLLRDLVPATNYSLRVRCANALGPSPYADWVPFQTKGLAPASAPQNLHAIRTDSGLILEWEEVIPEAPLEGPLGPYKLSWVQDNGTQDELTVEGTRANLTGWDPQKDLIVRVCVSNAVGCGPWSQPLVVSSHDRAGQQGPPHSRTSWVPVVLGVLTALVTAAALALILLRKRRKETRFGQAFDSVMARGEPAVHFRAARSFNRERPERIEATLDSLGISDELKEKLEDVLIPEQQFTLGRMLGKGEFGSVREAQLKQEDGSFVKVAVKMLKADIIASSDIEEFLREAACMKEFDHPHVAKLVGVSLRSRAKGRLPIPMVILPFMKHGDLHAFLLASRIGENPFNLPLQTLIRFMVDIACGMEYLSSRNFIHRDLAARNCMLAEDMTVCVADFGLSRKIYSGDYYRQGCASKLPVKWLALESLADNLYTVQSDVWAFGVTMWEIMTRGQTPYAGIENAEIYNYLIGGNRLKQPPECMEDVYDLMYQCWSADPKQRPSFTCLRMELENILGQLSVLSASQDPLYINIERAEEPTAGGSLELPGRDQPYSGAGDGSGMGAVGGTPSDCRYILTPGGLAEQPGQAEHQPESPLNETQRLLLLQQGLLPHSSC
Nature of the test: Tyro3 kinase inhibition IC50. Type of test: biochemical. The following applies: Table 1; read-out: Tyro3 IC50.
Take `CC(C)N1CCC(=Cc2ccc(-c3cnc(Nc4ccc(F)cc4)nc3N[C@H]3CC[C@H](O)CC3)nc2)CC1` [UNC4397A]: the IC50 is less than 0.01 µM.

Still in this test, the particulars now being: Table 2; read-out: Tyro3 IC50.
For `O[C@H]1CC[C@H](Nc2nc(Nc3ccc(C4=CCNCC4)cc3)ncc2-c2ccccn2)CC1` [UNC4402A], the IC50 was in the range of 0.1 to 1 µM.
Regarding `CC[C@H](N)C(=O)N1CC=C(c2ccc(Nc3ncc(-c4ccccn4)c(N[C@H]4CC[C@H](O)CC4)n3)cc2)CC1` [UNC4403A], the IC50 fell in the range of 0.1 to 1 µM.
`CN1CC=C(c2ccc(Nc3ncc(-c4ccccn4)c(N[C@H]4CC[C@H](O)CC4)n3)cc2)CC1` [UNC4431A]: the IC50 is 0.1 to 1 µM.
With `O[C@H]1CC[C@H](Nc2nc(Nc3ccc(C4=CCOCC4)cc3)ncc2-c2ccccn2)CC1` [UNC4434A], the IC50 fell in the range of 0.1 to 1 µM.
Consider `O[C@H]1CC[C@H](Nc2nc(Nc3ccc(-c4cccnc4)cc3)ncc2-c2ccccn2)CC1` [UNC4435A], for which the IC50 lay within 0.1 to 1 µM.
As to `CN1CCC(N2CC=C(c3ccc(Nc4ncc(-c5ccccn5)c(N[C@H]5CC[C@H](O)CC5)n4)cc3)CC2)CC1` [UNC5052A], the IC50 fell in the range of 0.1 to 1 µM.
Same read-out and setting: under `O[C@H]1CC[C@H](Nc2nc(Nc3ccc(C4=CCCN(C5CCC5)C4)cc3)ncc2-c2ccccn2)CC1` [UNC5070A] stands 0.1 to 1 µM; under `CN1CCC(N2CCC(c3ccc(Nc4ncc(-c5ccccn5)c(N[C@H]5CC[C@H](O)CC5)n4)cc3)CC2)CC1` [UNC5072A], 0.1 to 1 µM; under `O[C@H]1CC[C@H](Nc2nc(Nc3ccc(C4=CCCNC4)cc3)ncc2-c2ccccn2)CC1` [UNC5113A], 0.1 to 1 µM.
The same measure, in the same setting: the figure for `O[C@H]1CC[C@H](Nc2nc(Nc3ccc(C4CCNCC4)cc3)ncc2-c2ccccn2)CC1` [UNC5128A] is 0.1 to 1 µM; for `O[C@H]1CC[C@H](Nc2nc(Nc3ccc(C4CCCNC4)cc3)ncc2-c2ccccn2)CC1` (stereo partly drawn) [UNC5129A] it is 0.1 to 1 µM.
